Assays:
Details in all cases: stereoisomer not certain
[1] = RP, Waters CORTECS T3, 100 × 2.1 mm, 2.7 µm, 0.2 mL/min, estimated dead time 1.1 min; A: water + 0.045% formic acid + 0.11% ammonium hydroxide, pH 7; B: methanol; gradient (min/%B) 0/5 5/5 25/95 25.1/100 35/100 35.1/5 45/5
[2] = RP, Thermo Scientific Hypercarb, 150 × 2.1 mm, 5 µm, 0.1 mL/min, estimated dead time 3.3 min; A: water + 0.1% formic acid, pH 3; B: methanol + 0.1% formic acid, pH 3; gradient (min/%B) 0/5 5/5 20/100 35/100 35.1/5 45/5
[3] = RP, Waters CORTECS T3, 100 × 2.1 mm, 2.7 µm, 0.3 mL/min, estimated dead time 0.73 min; A: water + 0.1% formic acid, pH 3; B: methanol + 0.1% formic acid, pH 3; gradient (min/%B) 0/0 1/0 6/5 30/100 35/100 35.1/0 40/0
[4] = RP, Waters ACQUITY UPLC BEH C18, 100 × 2.1 mm, 1.7 µm, 0.2 mL/min, estimated dead time 1.1 min; A: water + 0.025% formic acid + 20 mM ammonium acetate + 0.055% ammonium hydroxide, pH 7; B: methanol; gradient (min/%B) 0/5 5/5 25/100 30/100 30.1/5 35/5
[5] = RP, Waters ACQUITY UPLC BEH C18, 100 × 2.1 mm, 1.7 µm, 0.1 mL/min, estimated dead time 2.2 min; A: water + 0.1% formic acid, pH 3; B: methanol + 0.1% formic acid, pH 3; gradient (min/%B) 0/5 5/5 25/100 30/100 30.1/5 35/5
[6] = RP, Waters CORTECS T3, 100 × 2.1 mm, 2.7 µm, 0.25 mL/min, estimated dead time 0.88 min; A: water + 0.1% formic acid, pH 3; B: methanol + 0.1% formic acid, pH 3; gradient (min/%B) 0/0 1/0 6/5 30/100 35/100 35.1/0 40/0
[7] = RP, Waters CORTECS T3, 100 × 2.1 mm, 2.7 µm, 0.1 mL/min, estimated dead time 2.2 min; A: water + 0.1% formic acid, pH 3; B: methanol + 0.1% formic acid, pH 3; gradient (min/%B) 0/5 5/5 25/95 25.1/100 35/100 35.1/5 45/5
[8] = RP, Waters CORTECS T3, 100 × 2.1 mm, 2.7 µm, 0.2 mL/min, estimated dead time 1.1 min; A: water + 0.1% formic acid, pH 3; B: methanol + 0.1% formic acid, pH 3; gradient (min/%B) 0/0 1/0 6/5 30/100 35/100 35.1/0 40/0
[9] = RP, Waters CORTECS T3, 100 × 2.1 mm, 2.7 µm, 0.3 mL/min, estimated dead time 0.73 min; A: water + 0.1% formic acid, pH 3; B: methanol + 0.1% formic acid, pH 3; gradient (min/%B) 0/5 5/5 25/100 30/100 30.1/5 35/5
[10] = RP, Waters CORTECS T3, 100 × 2.1 mm, 2.7 µm, 0.3 mL/min, estimated dead time 0.73 min; A: water + 0.1% formic acid, pH 3; B: methanol + 0.1% formic acid, pH 3; gradient (min/%B) 0/5 5/5 25/95 25.1/100 35/100 35.1/5 45/5
[11] = RP, Waters ACQUITY UPLC BEH C18, 100 × 2.1 mm, 1.7 µm, 0.1 mL/min, estimated dead time 2.2 min; A: water + 0.045% formic acid + 0.11% ammonium hydroxide, pH 7; B: methanol; gradient (min/%B) 0/5 5/5 25/95 25.1/100 35/100 35.1/5 45/5
[12] = RP, Waters CORTECS T3, 100 × 2.1 mm, 2.7 µm, 0.15 mL/min, estimated dead time 1.5 min; A: water + 0.1% formic acid, pH 3; B: methanol + 0.1% formic acid, pH 3; gradient (min/%B) 0/0 1/0 6/5 30/100 35/100 35.1/0 40/0
[13] = RP, Waters CORTECS T3, 100 × 2.1 mm, 2.7 µm, 0.1 mL/min, estimated dead time 2.2 min; A: water + 0.1% formic acid, pH 3; B: methanol + 0.1% formic acid, pH 3; gradient (min/%B) 0/0 1/0 6/5 30/100 35/100 35.1/0 40/0
[14] = RP, Waters CORTECS T3, 100 × 2.1 mm, 2.7 µm, 0.3 mL/min, estimated dead time 0.73 min; A: water + 0.1% formic acid, pH 3; B: methanol + 0.1% formic acid, pH 3; gradient (min/%B) 0/0 5/0 25/100 30/100 30.1/0 35/0
[15] = RP, Waters CORTECS T3, 100 × 2.1 mm, 2.7 µm, 0.2 mL/min, estimated dead time 1.1 min; A: water + 0.1% formic acid, pH 3; B: methanol + 0.1% formic acid, pH 3; gradient (min/%B) 0/0 1/0 6/5 30/100 35/100 35.1/0 40/0; remark: listed apart in the source
[16] = RP, Waters ACQUITY UPLC BEH C18, 100 × 2.1 mm, 1.7 µm, 0.2 mL/min, estimated dead time 1.1 min; A: water + 0.1% formic acid, pH 3; B: methanol + 0.1% formic acid, pH 3; gradient (min/%B) 0/5 5/5 25/100 30/100 30.1/5 35/5
[17] = RP, Waters CORTECS T3, 100 × 2.1 mm, 2.7 µm, 0.25 mL/min, estimated dead time 0.88 min; A: water + 0.1% formic acid, pH 3; B: methanol + 0.1% formic acid, pH 3; gradient (min/%B) 0/5 5/5 25/95 25.1/100 35/100 35.1/5 45/5

Cc1cnc(=O)[nH]c1N [5-METHYLCYTOSINE]
LC retention time [1]: 1.35 min
LC retention time [2]: 16.9 min
LC retention time [3]: 0.9 min
LC retention time [4]: 2.21 min
LC retention time [5]: 2.71 min
LC retention time [6]: 1.06 min

CC(=O)OCC(=O)C1(O)CCC2C3CCC4=CC(=O)CCC4(C)C3C(O)CC21C (stereo unspecified) [CORTISOL 21-ACETATE]
LC retention time [7]: 22.9 min
LC retention time [1]: 19.9 min
LC retention time [8]: 22.4 min
LC retention time [3]: 21.1 min
LC retention time [9]: 18.1 min
LC retention time [4]: 19.4 min
LC retention time [10]: 18.6 min
LC retention time [11]: 22.9 min
LC retention time [5]: 22.3 min
LC retention time [12]: 23.6 min
LC retention time [13]: 19.9 min
LC retention time [14]: 18.6 min
LC retention time [6]: 21.6 min

NC(CCSSCCC(N)C(=O)O)C(=O)O (stereo unspecified) [HOMOCYSTINE]
LC retention time [15]: 1.35 min
LC retention time [2]: 14 min
LC retention time [10]: 0.9 min
LC retention time [5]: 2.74 min
LC retention time [12]: 1.78 min
LC retention time [16]: 1.38 min
LC retention time [6]: 1.09 min

CCOC(=O)Cc1c[nH]c2ccccc12 [ETHYL 3-INDOLEACETATE]
LC retention time [7]: 22.1 min
LC retention time [1]: 18.9 min
LC retention time [8]: 21.1 min
LC retention time [3]: 19.6 min
LC retention time [9]: 16.9 min
LC retention time [10]: 17.4 min
LC retention time [11]: 22.5 min
LC retention time [12]: 22.4 min
LC retention time [13]: 18.8 min
LC retention time [14]: 17.5 min

O=CCc1c[nH]c2ccccc12 [INDOLE-3-ACETALDEHYDE]
LC retention time [7]: 13.8 min
LC retention time [1]: 10.7 min
LC retention time [8]: 12.1 min
LC retention time [3]: 10.8 min
LC retention time [9]: 9.2 min
LC retention time [4]: 10.6 min
LC retention time [10]: 9.27 min
LC retention time [11]: 13.7 min
LC retention time [5]: 13.6 min
LC retention time [12]: 13.3 min
LC retention time [13]: 10.6 min
LC retention time [6]: 11.3 min

COc1cc(C(O)C(=O)O)ccc1O (stereo unspecified) [3-METHOXY-4-HYDROXYMANDELATE]
LC retention time [17]: 2.78 min

O=C(O)Cc1c[nH]c2ccc(O)cc12 [5-HYDROXYINDOLEACETATE]
LC retention time [7]: 13.4 min
LC retention time [2]: 30.8 min
LC retention time [8]: 11.5 min
LC retention time [3]: 10.1 min
LC retention time [9]: 8.56 min
LC retention time [10]: 8.59 min
LC retention time [5]: 13.3 min
LC retention time [12]: 12.9 min
LC retention time [13]: 10.1 min
LC retention time [14]: 10 min
LC retention time [6]: 10.8 min

COC(=O)Cc1c[nH]c2ccccc12 [METHYL INDOLE-3-ACETATE]
LC retention time [7]: 20.5 min
LC retention time [1]: 17.2 min
LC retention time [8]: 19.3 min
LC retention time [3]: 17.6 min
LC retention time [9]: 15.3 min
LC retention time [10]: 15.7 min
LC retention time [11]: 20.9 min
LC retention time [5]: 20.5 min
LC retention time [12]: 20.6 min
LC retention time [13]: 17.2 min
LC retention time [14]: 16 min

N[C@@H](Cc1ccccc1)C(=O)O [L-PHENYLALANINE]
LC retention time [7]: 17.2 min
LC retention time [8]: 15.3 min
LC retention time [3]: 13.6 min
LC retention time [9]: 11.8 min
LC retention time [10]: 12 min
LC retention time [5]: 17.3 min
LC retention time [12]: 16.7 min
LC retention time [13]: 13.6 min
LC retention time [14]: 12.8 min
LC retention time [6]: 14.4 min

Cn1cnc(=N)c2[nH]cnc21 [3-METHYLADENINE]
LC retention time [1]: 3.8 min
LC retention time [2]: 24.5 min
LC retention time [8]: 1.34 min
LC retention time [4]: 3.62 min
LC retention time [11]: 2.75 min
LC retention time [5]: 2.69 min
LC retention time [12]: 1.78 min
LC retention time [14]: 0.89 min
LC retention time [6]: 1.09 min

O=C(O)C=Cc1cnc[nH]1 [UROCANATE]
LC retention time [3]: 0.9 min
LC retention time [4]: 1.39 min
LC retention time [5]: 2.71 min
LC retention time [12]: 1.8 min
LC retention time [14]: 0.91 min
LC retention time [16]: 1.36 min
LC retention time [6]: 1.06 min

NC(=O)[C@@H](N)Cc1c[nH]c2ccccc12 [L-TRYPTOPHANAMIDE]
LC retention time [7]: 11.1 min
LC retention time [1]: 9.97 min
LC retention time [8]: 9.28 min
LC retention time [3]: 7.63 min
LC retention time [9]: 4.89 min
LC retention time [4]: 10.1 min
LC retention time [11]: 14.1 min
LC retention time [5]: 11.2 min
LC retention time [12]: 10.8 min
LC retention time [13]: 7.08 min
LC retention time [14]: 8.34 min
LC retention time [6]: 8.41 min

O=C(O)C(O)C(O)C(O)C(O)COP(=O)(O)O (stereo unspecified) [6-PHOSPHOGLUCONIC ACID]
LC retention time [17]: 1.08 min

Nc1ccccc1O [2-AMINOPHENOL]
LC retention time [7]: 2.8 min

Cc1ncc(CO)c(CN)c1O [PYRIDOXAMINE]
LC retention time [1]: 1.35 min
LC retention time [2]: 16.2 min
LC retention time [4]: 1.8 min
LC retention time [11]: 2.75 min

CCC=CCC1C(=O)CCC1CC(=O)OC (stereo unspecified) [METHYL JASMONATE]
LC retention time [7]: 23.6 min
LC retention time [1]: 20.3 min
LC retention time [4]: 20 min
LC retention time [11]: 23.9 min
LC retention time [5]: 23.2 min
LC retention time [12]: 24 min

CCCCC(CC)COC(=O)c1ccccc1C(=O)OCC(CC)CCCC (stereo unspecified) [BIS(2-ETHYLHEXYL)PHTHALATE]
LC retention time [1]: 26.7 min
LC retention time [3]: 30 min
LC retention time [9]: 25.4 min
LC retention time [10]: 26.4 min
LC retention time [11]: 30.8 min
LC retention time [5]: 30 min
LC retention time [12]: 32.3 min
LC retention time [13]: 26.7 min
LC retention time [14]: 25.5 min
LC retention time [6]: 30.4 min

CCCCCCCCC=CCCCCCCCC(=O)OCC(O)CO (racemic) [1-OLEOYL-RAC-GLYCEROL]
LC retention time [1]: 26.2 min
LC retention time [3]: 29 min
LC retention time [9]: 24.6 min
LC retention time [4]: 26.3 min
LC retention time [10]: 25.6 min
LC retention time [11]: 30.2 min
LC retention time [5]: 29.3 min
LC retention time [13]: 26.2 min
LC retention time [14]: 24.8 min

CC=CC=CC(=O)O [SORBATE]
LC retention time [7]: 4.88 min

— the RepoRT retention time repository (doi:10.1016/j.jchromb.2020.122105)
